Source: article PMC8743659, “C1632 suppresses the migration and proliferation of non‐small‐cell lung cancer cells involving LIN28 and FGFR1 pathway” (Journal of Cellular and Molecular Medicine, 2021)

Assays:
[1] = Tissue distribution study; assay type: in vivo, mice; conditions: mouse, 20 mg/kg
Description: Agilent 1290 UHPLC system and 6420 series Triple‐Quadrupole Tandem Mass Spectrometer (Agilent Corporation) maintained at 35°C with a ZORBAX Eclipse Plus C18 column (1.8 μm, 2.1 × 50 mm). The mobile phase was a gradient elution program consisting of solvent A with solvent B at a flow rate of 0.4 ml/min. Mobile phase A was 0.1% formic acid in water (v/v), and mobile phase B was acetonitrile. The optimal gradient elution program was as follows: 0–0.5 min, linear from 80% to 5% A; 0.5–1.5 min, 5% A; 1.5–1.6 min, linear from 5% to 80% A. The post‐time was 1.3 min for equilibration of the column and the total runtime was 1.8 min. The mass spectrometer was acquired in an ESI‐positive mode with multiple reaction monitoring (MRM). Instrument control and data acquisition were performed on the MassHunter Agilent Software (version B.07.00).
The desolation gas (nitrogen) flow was set to 10 L/h: the capillary voltage: 4000 V; nebulizing gas and drying gas (both nitrogen): 45 psi and 350°C, respectively. The MRM mode with m/z 282.2→76.9 for C1632 and m/z 282.1→194.0 for IS was used for quantitative analysis.
Twenty‐four mice were randomly divided into four groups (six mice for each group, one group for each time point) and received 20 mg/kg […] of C1632 by oral administration. The mice were euthanized by decapitation at 0 (blank group), 0.25, 2 and 6 h after C1632 was given. Tissues were collected and washed with normal saline, then homogenized and subjected to sample preparation. Subsequently, the concentration of C1632 was determined by UHPLC‐MS/MS.

A549 cells [2] = assay: Cell adhesion assay; assay type: cell-based, human; conditions: A549, fibronectin-coated plate, concentration-dependent
Description: (§1) The cell adhesion assay was performed as indicated previously.[38] Briefly, the 96‐well plate was coated with human fibronectin (Millipore), and then cells were seeded into the 96‐well plate and cultured for another 1 h at 37°C in a 5% CO2 incubator. Finally, rinsing the plate before fixed with 10% formalin and stained with crystal violet. As followed, wash the plate with ddH2O and add 100 μl acetic acid (33%) into the plate to dissolve the crystal violet. The absorbance at 560 nm was detected by Synergy H1 Multi‐Mode Reader (BioTek). Relative number of cells attaching to extracellular matrix was evaluated using the following equation: mean OD of treated cells/mean OD of control cells.

A549R cells [3] = assay: Cell adhesion assay; assay type: cell-based, human; conditions: fibronectin-coated plate, concentration-dependent
Description: as §1

A549 cells [4] = assay: Cell cycle distribution analysis (flow cytometry); assay type: cell-based, human; conditions: A549, 15, 30 and 60 mg/L, 5 days, dose-dependent
Description: (§2) Cells were cultured in the absence or presence of 15, 30, and 60 mg/L of C1632 or 0.01% DMSO for 5 days, trypsinized, washed, and stained with propidium iodide before cell cycle distribution was assessed on a flow cytometer (BD FACSCalibur, BD Biosciences).

A549R cells [5] = assay: Cell cycle distribution analysis (flow cytometry); assay type: cell-based, human; conditions: A549R, 15, 30 and 60 mg/L, 5 days, dose-dependent
Description: as §2

## CC(=O)N(C)c1cccc(-c2ccc3nnc(C)n3n2)c1 [C1632]
[1]
  level of C1632 in the brain: remained low
[1]; 0.25 h, followed by kidney, heart and spleen
  tissues with the highest level of C1632: highest in the lung and liver
[1]; tissues (major organs), homogenized, oral administration, sampled at 0.25, 2 and 6 h, read-out: time of peak concentration in major organs
  Tmax: 15 min
A549 cells [2]
  cell adhesion to the matrix: significant decrease
A549R cells [3]
  cell adhesion to the matrix: significant decrease
A549 cells [4]
  cell cycle distribution: arrested A549 and A549R cells at the G0/G1 phase
A549R cells [5]
  cell cycle distribution: arrested A549 and A549R cells at the G0/G1 phase
